Results: EPA's CvTdb concentration-time database

How the values were obtained:
[1] = system: Rat; assay: concentration in brain after dosing; conditions: 1.5 h; dosed: 2-Methyltetrahydrofuran; 40 mg/kg; iv; Male; Harlan Sprague Dawley
[2] = system: Rat; assay: concentration in brain after dosing; conditions: 1.5 h; dosed: 2-Methyltetrahydrofuran; 40 mg/kg; iv; Male; Harlan Sprague Dawley; remark: listed apart in the source
[3] = system: Rat; assay: concentration in plasma after dosing; conditions: 0.75 h; dosed: 2-Methyltetrahydrofuran; 40 mg/kg; iv; Male; Harlan Sprague Dawley
[4] = system: Rat; assay: concentration in plasma after dosing; conditions: 7 min; dosed: 2-Methyltetrahydrofuran; 40 mg/kg; iv; Male; Harlan Sprague Dawley
[5] = system: Rat; assay: concentration in plasma after dosing; conditions: 0.2 h; dosed: 2-Methyltetrahydrofuran; 40 mg/kg; iv; Male; Harlan Sprague Dawley
[6] = system: Rat; assay: concentration in plasma after dosing; conditions: 7 min; dosed: 2-Methyltetrahydrofuran; 40 mg/kg; iv; Male; Harlan Sprague Dawley; remark: listed apart in the source
[7] = system: Rat; assay: concentration in liver after dosing; conditions: 0.5 h; dosed: Perfluorohexanoic Acid; 80 mg/kg; oral; Male; Harlan Sprague Dawley
[8] = system: Rat; assay: concentration in liver after dosing; conditions: 6 h; dosed: Perfluorohexanoic Acid; 80 mg/kg; oral; Male; Harlan Sprague Dawley
[9] = system: Rat; assay: concentration in liver after dosing; conditions: 3 h; dosed: Perfluorohexanoic Acid; 80 mg/kg; oral; Female; Harlan Sprague Dawley
[10] = system: Rat; assay: concentration in plasma after dosing; conditions: 0.75 h; dosed: Perfluorohexanoic Acid; 40 mg/kg; iv; Female; Harlan Sprague-Dawley
[11] = system: Rat; assay: concentration in plasma after dosing; conditions: dosed: Perfluorohexanoic Acid, 40 mg/kg, oral, Male, Harlan Sprague Dawley
[12] = system: Rat; assay: concentration in plasma after dosing; conditions: 1.5 h; dosed: Perfluorohexanoic Acid; 40 mg/kg; iv; Male; F344
[13] = system: Rat; assay: concentration in kidney after dosing; conditions: 12 h; dosed: Perfluorohexanoic Acid; 80 mg/kg; oral; Male; Harlan Sprague Dawley
[14] = system: Rat; assay: concentration in plasma after dosing; conditions: dosed: Perfluorohexanoic Acid, 80 mg/kg, oral, Male, Harlan Sprague Dawley
[15] = system: Rat; assay: concentration in plasma after dosing; conditions: dosed: Perfluorohexanoic Acid, 40 mg/kg, iv, Male, F344
[16] = system: Rat; assay: concentration in plasma after dosing; conditions: 15 h; dosed: Gemfibrozil; 50 mg/kg; oral; Male; Sprague-Dawley
[17] = system: Rat; assay: concentration in plasma after dosing; conditions: 4 h; dosed: Gemfibrozil; 4.29 mg/kg; oral; Male; Sprague-Dawley
[18] = system: Rat; assay: concentration in plasma after dosing; conditions: 10 min; dosed: Gemfibrozil; 100 mg/kg; oral; Male; Sprague-Dawley
[19] = system: Rat; assay: concentration in plasma after dosing; conditions: 10 min; dosed: Gemfibrozil; 50 mg/kg; oral; Male; Sprague-Dawley
[20] = system: Rat; assay: concentration in plasma after dosing; conditions: 0.5 h; dosed: Gemfibrozil; 100 mg/kg; oral; Male; Sprague-Dawley
[21] = system: Rat; assay: concentration in plasma after dosing; conditions: 24 h; dosed: Gemfibrozil; 50 mg/kg; oral; Male; Sprague-Dawley
[22] = system: Rat; assay: concentration in brain after dosing; conditions: 24 h; dosed: Perfluorooctane Sulfonate; 2 mg/kg; oral; Female; Harlan Sprague Dawley
[23] = system: Rat; assay: concentration in liver after dosing; conditions: 1848 h; dosed: Perfluorooctane Sulfonate; 20 mg/kg; oral; Male; Harlan Sprague Dawley
[24] = system: Rat; assay: concentration in brain after dosing; conditions: 1848 h; dosed: Perfluorooctane Sulfonate; 20 mg/kg; oral; Male; Harlan Sprague Dawley
[25] = system: Rat; assay: concentration in liver after dosing; conditions: 864 h; dosed: Perfluorooctane Sulfonate; 20 mg/kg; oral; Male; Harlan Sprague Dawley
[26] = system: Rat; assay: concentration in liver after dosing; conditions: 3360 h; dosed: Perfluorooctane Sulfonate; 20 mg/kg; oral; Male; Harlan Sprague Dawley
[27] = system: Rat; assay: concentration in liver after dosing; conditions: 24 h; dosed: Perfluorooctane Sulfonate; 2 mg/kg; oral; Female; Harlan Sprague Dawley
[28] = system: Rat; assay: concentration in kidney after dosing; conditions: 1848 h; dosed: Perfluorooctane Sulfonate; 2 mg/kg; oral; Female; Harlan Sprague Dawley
[29] = system: Rat; assay: concentration in plasma after dosing; conditions: 6 h; dosed: Perfluorooctane Sulfonate; 2 mg/kg; oral; Female; Harlan Sprague Dawley
[30] = system: Rat; assay: concentration in plasma after dosing; conditions: dosed: Perfluorooctane Sulfonate, 2 mg/kg, iv, Male, F344
[31] = system: Rat; assay: concentration in kidney after dosing; conditions: 24 h; dosed: Perfluorooctane Sulfonate; 20 mg/kg; oral; Male; Harlan Sprague Dawley
[32] = system: Rat; assay: concentration in kidney after dosing; conditions: 864 h; dosed: Perfluorooctane Sulfonate; 20 mg/kg; oral; Male; Harlan Sprague Dawley
[33] = system: Rat; assay: concentration in kidney after dosing; conditions: 3360 h; dosed: Perfluorooctane Sulfonate; 20 mg/kg; oral; Male; Harlan Sprague Dawley
[34] = system: Rat; assay: concentration in brain after dosing; conditions: 6 h; dosed: Fluorotelomer alcohol 8+2; 80 mg/kg; oral; Female; Harlan Sprague Dawley
[35] = system: Rat; assay: concentration in liver after dosing; conditions: 12 h; dosed: Fluorotelomer alcohol 8+2; 24 mg/kg; oral; Male; Harlan Sprague Dawley
[36] = system: Rat; assay: concentration in brain after dosing; conditions: 6 h; dosed: Fluorotelomer alcohol 8+2; 24 mg/kg; oral; Male; Harlan Sprague Dawley
[37] = system: Rat; assay: concentration in brain after dosing; conditions: 0.5 h; dosed: Fluorotelomer alcohol 8+2; 24 mg/kg; oral; Male; Harlan Sprague Dawley
[38] = system: Rat; assay: concentration in liver after dosing; conditions: 0.5 h; dosed: Fluorotelomer alcohol 8+2; 80 mg/kg; oral; Female; Harlan Sprague Dawley
[39] = system: Rat; assay: concentration in plasma after dosing; conditions: dosed: 678-39-7, 40 mg/kg, iv, Male, F344
[40] = system: Rat; assay: concentration in kidney after dosing; conditions: 1 h; dosed: Fluorotelomer alcohol 8+2; 80 mg/kg; oral; Female; Harlan Sprague Dawley

CC1CCCO1 (stereo unspecified) [2-Methyltetrahydrofuran]
Conditions	concentration in brain [ng/mL]	concentration in plasma [ng/mL]
[1]	2800	–
[2]	6260	–
[3]	–	31600
[4]	–	41500
[5]	–	35700
[6]	–	45700

O=C(O)C(F)(F)C(F)(F)C(F)(F)C(F)(F)C(F)(F)F [Perfluorohexanoic Acid]
Conditions	concentration in kidney [ng/g]	concentration in liver [ng/g]	concentration in plasma [ng/mL]
[7]	–	102000	–
[8]	–	9200	–
[9]	–	8200	–
[10]	–	–	113
[12]	–	–	8050
[13]	1990	–	–

Conditions	concentration in plasma [ng/mL]
[11], 0.75 h	78200
[11], 12 h	5210
[14], 5 min	29100
[14], 9 h	4040
[15], 3 h	1450
[15], 5 min	35700

Cc1ccc(C)c(OCCCC(C)(C)C(=O)O)c1 [Gemfibrozil]
Conditions	concentration in plasma [ng/mL]
[16]	928
[17]	596
[18]	50400
[19]	76500
[20]	40400
[21]	754

O=S(=O)([O-])C(F)(F)C(F)(F)C(F)(F)C(F)(F)C(F)(F)C(F)(F)C(F)(F)C(F)(F)F [Perfluorooctane Sulfonate]
Conditions	concentration in brain [ng/g]	concentration in kidney [ng/g]	concentration in liver [ng/g]	concentration in plasma [ng/mL]
[22]	800	–	–	–
[23]	–	–	59600	–
[24]	1320	–	–	–
[25]	–	–	98700	–
[26]	–	–	8480	–
[27]	–	–	23800	–
[28]	–	980	–	–
[29]	–	–	–	4920
[31]	–	67900	–	–
[32]	–	17800	–	–
[33]	–	1110	–	–

[30]
Conditions	concentration in plasma [ng/mL]
12 h	4350
864 h	995
3216 h	99.5

O=C(O)CCC(F)(F)C(F)(F)C(F)(F)C(F)(F)C(F)(F)C(F)(F)C(F)(F)F [Fluorotelomer acid 7+3]
Conditions	concentration in brain [ng/g]	concentration in kidney [ng/g]	concentration in liver [ng/g]
[34]	1470	–	–
[35]	–	–	1580
[36]	305	–	–
[37]	81.2	–	–
[38]	–	–	934
[40]	–	762	–

[39]
Conditions	concentration in plasma [ng/mL]
0.5 h	470
9 h	2680
